TGI and GI50 data for twelve compounds are collected here from PubChem BioAssay (NCI).

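96-well plates; 48 h exposure; 5 concentrations. Endpoints by linear interpolation between flanking doses. Not reached: highest tested concentration assigned. GI50 = concentration required for 50% inhibition of growth. Definition used: TGI = concentration required for complete inhibition of growth.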 *1 amine or outer side, *2 acyl side, *3 side chain or, on linkers, in order; H or OH if unused. Where a SMILES comes first, the peptide text is derived from it. Bridges are numbered along the chain shown (N, C = ends). Roman numbers before positions name the chains, in order. X23 = CCCCCCCCCCCCCCC(=O)NC(CCCCN[*:2])C(=O)CN1CCCC1C(=O)[*:1]

Among the test systems are M14 melanoma; NCI-H522 lung; DU-145 prostate; SF-268 CNS; NCI/ADR-RES ovarian; OVCAR-3 ovarian; CCRF-CEM leukemia; HT29 colon; SF-539 CNS; SK-OV-3 ovarian.
Assay in all cases: NCI tumour cell line growth inhibition, 48 h

In the case of `CN(CCNC(=O)c1cn(C)c2c1ccc1cc(Cl)ccc12)CCNC(=O)c1cn(C)c2c1ccc1cc(Cl)ccc12`, the TGI with M14 melanoma was found to be 3 µM; with NCI-H522 lung it was 3.68 µM; in the assay on DU-145 prostate it was 3.25 µM; in the assay on SF-268 CNS, 3.51 µM; in the assay on NCI/ADR-RES ovarian, 3.6 µM; in the assay with OVCAR-3 ovarian, 6.43 µM. Moreover, the TGI stood at 66 µM with CCRF-CEM leukemia, 3.62 µM in the assay on HT29 colon and 9.35 µM in the assay with SF-539 CNS.

`OCCSCc1cc(Cl)cc(Cl)c1O`: the TGI in the assay with M14 melanoma, with SK-OV-3 ovarian, in the assay with NCI-H522 lung, in the assay on DU-145 prostate, in the assay with SF-268 CNS and in the assay with NCI/ADR-RES ovarian was greater than 100 µM each time. The TGI with OVCAR-3 ovarian, with CCRF-CEM leukemia and in the assay on HT29 colon was greater than 100 µM throughout.

In the case of `O=C1CSc2sc(=S)sc2S1`, the TGI with SK-OV-3 ovarian, with NCI-H522 lung, with SF-268 CNS, in the assay on NCI/ADR-RES ovarian, in the assay on OVCAR-3 ovarian and in the assay with CCRF-CEM leukemia was greater than 100 µM each time. In addition, the TGI with HT29 colon and in the assay on SF-539 CNS was greater than 100 µM throughout.

In the case of `Cc1cc(O)c2cc3c(O)c(O)ccc3cc2c1`, the TGI in the assay with M14 melanoma was 20 µM; in the assay on SK-OV-3 ovarian, 9.82 µM; with NCI-H522 lung, 3.98 µM; in the assay with DU-145 prostate, greater than 50.8 µM; in the assay with SF-268 CNS, 8.51 µM; in the assay on NCI/ADR-RES ovarian it was 5.89 µM. The TGI in the assay with OVCAR-3 ovarian turned out to be 6.04 µM; with CCRF-CEM leukemia, 22.6 µM; in the assay on HT29 colon it was 8.43 µM; with SF-539 CNS it was 3.27 µM.

For `CC(C)(C)OC(=O)N1CCCC1C(=O)NCCNc1ccc(NCCNC(=O)C2CCCN2C(=O)OC(C)(C)C)c2c1C(=O)c1ccccc1C2=O` (configuration not stated), the TGI is 29.8 µM in the assay with M14 melanoma; 39.6 µM in the assay with SK-OV-3 ovarian; 29.7 µM in the assay on NCI-H522 lung; greater than 100 µM with SF-268 CNS; 29.6 µM in the assay on NCI/ADR-RES ovarian; 27.1 µM in the assay with OVCAR-3 ovarian. The TGI in the assay on CCRF-CEM leukemia was greater than 100 µM; in the assay on HT29 colon it was 38.2 µM; in the assay with SF-539 CNS it was 30.1 µM.

Regarding `O=C1NC2(NC(=O)C1=O)Nc1ccccc1S2`, the TGI in the assay on M14 melanoma is greater than 100 µM; in the assay on SK-OV-3 ovarian it was greater than 100 µM; in the assay with NCI-H522 lung, 50 µM; in the assay on SF-268 CNS, greater than 76.3 µM; in the assay with OVCAR-3 ovarian, greater than 100 µM; in the assay with CCRF-CEM leukemia, 66.3 µM. Besides, the results for the TGI in the assay on HT29 colon and with SF-539 CNS were greater than 100 µM and 62.7 µM, respectively.

As to `Cc1ccc(NC(=O)CC(=O)n2nc(-c3ccccc3)c(N=Nc3ccccc3C(=O)O)c2-c2ccccc2)cc1`, the TGI with SK-OV-3 ovarian, in the assay on NCI-H522 lung, in the assay with SF-268 CNS, in the assay with OVCAR-3 ovarian and in the assay with SF-539 CNS was greater than 100 µM throughout.

For `Nc1nccc2c1ncn2C1C=C(CO)C(O)C1O` (configuration not stated), the GI50 in the assay with M14 melanoma is 7.18 µM; with SK-OV-3 ovarian it was greater than 1000 µM; with NCI-H522 lung it was greater than 1000 µM; in the assay on OVCAR-3 ovarian, 136 µM; in the assay with CCRF-CEM leukemia, 1.91 µM; in the assay on HT29 colon, 0.816 µM. The GI50 in the assay on SF-539 CNS is 711 µM. Besides, the TGI in the assay with M14 melanoma, with SK-OV-3 ovarian, in the assay with NCI-H522 lung, with OVCAR-3 ovarian, in the assay on CCRF-CEM leukemia and with HT29 colon was greater than 1000 µM throughout. The compound also displayed a TGI in the assay on SF-539 CNS greater than 1000 µM.

On to `O=C1/C(=C/c2ccc3c(c2)OCO3)Sc2scc(-c3ccc(O)c(O)c3)[n+]21`, for which the TGI in the assay on M14 melanoma is 13.3 µM; in the assay on SK-OV-3 ovarian it was 17.5 µM; in the assay with DU-145 prostate, 13.1 µM; in the assay on SF-268 CNS it was 97.2 µM; in the assay with NCI/ADR-RES ovarian, 4.48 µM; in the assay on OVCAR-3 ovarian it was 15.3 µM. Further, the TGI with HT29 colon amounted to 18.6 µM; in the assay on SF-539 CNS, 7.84 µM.

For the compound `CCCCCCCCCCCCCCC(=O)NC(CCCCNC(=O)C1CCCN1C(=O)C(CCCCN)NC(=O)C(CCCCN)NC(=O)C(CCCCN)NC(=O)C(CCCNC(=N)N)NC(=O)C(CCCCN)NC(=O)C(N)C(C)C)C(=O)CN1CCCC1C(=O)NCC(=O)NC(Cc1ccccc1)C(=O)N1CCCC1C(=O)NC(CO)C(=O)NC(Cc1ccc(O)cc1)C(=O)NC(CCCCN)C(=O)NC(CC(C)C)C(=O)NC(CCCNC(=N)N)C(=O)N1CCCC1C(=O)NCC(N)=O` (configuration not stated) (I: GFPSYKLRPG-NH2 / II: H-VKRKKKP; linker I:N-II:C via X23; configuration not given here), the GI50 is 22.8 µM with M14 melanoma; 15.9 µM in the assay on SK-OV-3 ovarian; 21.8 µM in the assay with NCI-H522 lung; 24.6 µM in the assay with DU-145 prostate; 14.6 µM with SF-268 CNS; 19.6 µM in the assay with NCI/ADR-RES ovarian. Also, the GI50 with OVCAR-3 ovarian was 18.7 µM; with CCRF-CEM leukemia, 16.5 µM; in the assay on HT29 colon, 24.7 µM; with SF-539 CNS, 27.7 µM. The TGI in the assay with M14 melanoma is 55.6 µM; in the assay on SK-OV-3 ovarian, 44.3 µM; in the assay on NCI-H522 lung, 66.3 µM; with DU-145 prostate, 64.2 µM; with SF-268 CNS, 40.8 µM; in the assay with NCI/ADR-RES ovarian, 52.9 µM. Moreover, the TGI was 94.6 µM in the assay on OVCAR-3 ovarian, 35.1 µM in the assay with CCRF-CEM leukemia, 77.8 µM in the assay on HT29 colon and 75.1 µM in the assay with SF-539 CNS.

On to `O=[P+](O)c1cccs1`, for which the TGI in the assay with M14 melanoma, with SK-OV-3 ovarian, in the assay with NCI-H522 lung, in the assay on SF-268 CNS, with CCRF-CEM leukemia and in the assay on HT29 colon was greater than 100 µM in each case. In the assay on SF-539 CNS, this compound showed a TGI greater than 100 µM.

On to `CCc1cccc(C(C)C)c1NC1=C([n+]2ccc(C)cc2)C(=O)c2ccccc2C1=O`, for which the TGI in the assay with M14 melanoma was 3.16 µM; in the assay on SK-OV-3 ovarian, 19.7 µM; in the assay on NCI-H522 lung, 15.8 µM; in the assay with DU-145 prostate it was 3.92 µM; in the assay on SF-268 CNS it was 5.8 µM; in the assay with NCI/ADR-RES ovarian, 37.8 µM. Also, the TGI came out at 2.31 µM in the assay with OVCAR-3 ovarian, 4 µM with CCRF-CEM leukemia, 7.75 µM in the assay on HT29 colon and 4.27 µM in the assay with SF-539 CNS.
